# Results as given in patent publication US20250281540A1, “Methods for Haematopoietic Stem Cell Transplantation” (Ospedale San Raffaele S.r.l., priority 2022, published 2025).
# How the values were obtained:
# WBC, LSK and SLAM HSC [1] = assay: Mobilization protocols in Cd40Ig^−/− mice (PB and BM counts); type: in vivo
# Description: To investigate the therapeutic potential of M-HSCT, we took advantage of Cd40Ig^−/− mice, which faithfully recapitulate the phenotype of the human primary combined immunodeficiency Hyper IgM Syndrome 1 (HIGM-1; Renshaw, B. R., et al. (1994). J Exp Medicine 180, 1889-1900). Because G-CSF treatment may have a detrimental effect on the BM niche, we investigated the efficiency of mobilization protocols differing for its presence or absence, the G-CSF dose and the duration and combination with other drugs (FIG. 2A).
# (§1) Blood samples were also analysed with the hemocytometer Sysmex KX-21N (Block scientific, Sysmex corporation) to quantify absolute numbers.
# Different protocols were tested in Cd40Ig^−/− mice: (i) s.c. pump delivering 250 μg/kg/day of G-CSF for 7 days (G7); (ii) s.c. pump delivering 250 μg/kg/day of G-CSF for 7 days, with i.p. injections of AMD3100 (5 mg/kg/day) on day 6 and 7 (G7A); (iii) s.c. pump delivering 250 μg/kg/day of G-CSF for 7 days, with i.p. injections of AMD3100 (5 mg/kg/day) and BIO5192 (1 mg/kg/day) on day 6 and 7 (G7AB); (iv) s.c. pump delivering 125 μg/kg/day of G-CSF for 7 days, with i.p. injections of AMD3100 (5 mg/kg/day) and BIO5192 (1 mg/kg/day) on day 6 and 7 (G7AB-H); (v) G-CSF delivered by i.p. injections (125 μg/kg) every 12 hours for four days, with AMD3100 s.c. injections (5 mg/kg) 14 hours after the last dose of G-CSF (G5A); (vi) G-CSF delivered by i.p. injections (125 μg/kg) every 12 hours for four days, with AMD3100 (5 mg/kg) and BIO5192 (1 mg/kg) s.c. injections 14 hours after the last dose of G-CSF (G5AB); (vii) s.c. pump delivering 250 μg/kg/day of G-CSF for 3 days, with i.p. injections of AMD3100 (5 mg/kg/day) and BIO5192 (1 mg/kg/day) on day 6 and 7 (G3AB); (viii) s.c. pump delivering 125 μg/kg/day of G-CSF for 3 days, with i.p. injections of AMD3100 (5 mg/kg/day) and BIO5192 (1 mg/kg/day) on day 6 and 7 (G3AB-H); and (ix) AMD3100 (5 mg/kg/day) and BIO5192 (1 mg/kg/day) i.p. injected for three days.
# Bone marrow vacancy and estimated chimerism were calculated based on the following formulas in Cd40Ig^−/− mice (summarized in table below): • To determine the total number of SLAM HSC per mouse at steady state (FIG. 2G, left panel), lower limbs (which account for 20% of the total BM) were collected in a defined volume and counted, paralleled with their characterization through FACS. We found 2500 SLAM HSC/lower limbs, therefore reaching a total of 12,500 SLAM HSC/mouse (2500*100/20). This number is in accordance with other published papers (Chen, J., et al. (2008). Experimental hematology, 36(10), 1236-1243; Karpova, D., et al. (2017). Blood, 129(21), 2939-2949; and Singh, P., et al. (2020). Stem cells (Dayton, Ohio), 38(7), 849-859). • To determine the total number of SLAM HSC that egressed from the BM post-G7AB mobilization, we examined the BM of mobilized mice. 1100 SLAM HSC were recovered in the lower limbs, reaching a total of 5500 SLAM HSC in the BM of mobilized mice. Therefore, to determine the number of SLAM HSC egressed, the number of SLAM HSC present post-mobilization was subtracted from the total number of SLAM HSC present in the steady state mouse, leading to an assessment of 7000 SLAM HSC egressing from the BM (12500-5500). • The mobilized SLAM HSC/mL was calculated based on the bleeding performed at the peak of mobilization in mobilized mice (FIG. 2G, right panel). The blood was analyzed through hematocytometer (WBC/mL) and FACS staining (% subpopulation). […]
# VLA-4 = VLA-4 (Homo sapiens, UniProt P05556+P13612); conditions: VLA-4 versus α4β7 integrin; Ramirez et al. 2009; cited from earlier work
# Sequence of VLA-4 (P13612 34-1032): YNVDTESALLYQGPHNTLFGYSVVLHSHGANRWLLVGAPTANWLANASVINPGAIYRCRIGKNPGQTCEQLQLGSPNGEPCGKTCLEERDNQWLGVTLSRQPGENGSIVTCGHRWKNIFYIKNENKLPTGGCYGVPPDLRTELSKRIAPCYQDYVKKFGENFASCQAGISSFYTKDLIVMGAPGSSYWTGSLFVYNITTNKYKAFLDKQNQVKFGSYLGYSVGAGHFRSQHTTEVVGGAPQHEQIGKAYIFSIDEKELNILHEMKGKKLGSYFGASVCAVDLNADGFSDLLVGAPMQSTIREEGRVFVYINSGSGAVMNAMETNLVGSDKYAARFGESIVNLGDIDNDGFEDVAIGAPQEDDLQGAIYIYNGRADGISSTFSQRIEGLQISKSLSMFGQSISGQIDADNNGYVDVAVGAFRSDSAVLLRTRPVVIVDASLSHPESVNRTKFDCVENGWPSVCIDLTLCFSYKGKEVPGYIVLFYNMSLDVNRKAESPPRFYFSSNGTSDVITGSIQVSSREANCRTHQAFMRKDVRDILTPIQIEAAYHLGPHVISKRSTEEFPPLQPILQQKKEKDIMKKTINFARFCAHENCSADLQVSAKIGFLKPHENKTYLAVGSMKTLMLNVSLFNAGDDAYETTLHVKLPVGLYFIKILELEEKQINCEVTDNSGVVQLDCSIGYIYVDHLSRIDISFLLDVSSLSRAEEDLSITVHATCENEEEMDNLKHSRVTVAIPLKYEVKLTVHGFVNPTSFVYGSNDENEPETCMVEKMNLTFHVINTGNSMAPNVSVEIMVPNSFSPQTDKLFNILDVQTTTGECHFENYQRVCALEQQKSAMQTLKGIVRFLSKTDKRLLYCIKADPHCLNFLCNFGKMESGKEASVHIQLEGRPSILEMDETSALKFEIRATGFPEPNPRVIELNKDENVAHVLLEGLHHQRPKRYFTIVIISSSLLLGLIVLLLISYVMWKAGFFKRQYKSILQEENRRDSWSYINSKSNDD
# Sequence of VLA-4 (P05556 21-798): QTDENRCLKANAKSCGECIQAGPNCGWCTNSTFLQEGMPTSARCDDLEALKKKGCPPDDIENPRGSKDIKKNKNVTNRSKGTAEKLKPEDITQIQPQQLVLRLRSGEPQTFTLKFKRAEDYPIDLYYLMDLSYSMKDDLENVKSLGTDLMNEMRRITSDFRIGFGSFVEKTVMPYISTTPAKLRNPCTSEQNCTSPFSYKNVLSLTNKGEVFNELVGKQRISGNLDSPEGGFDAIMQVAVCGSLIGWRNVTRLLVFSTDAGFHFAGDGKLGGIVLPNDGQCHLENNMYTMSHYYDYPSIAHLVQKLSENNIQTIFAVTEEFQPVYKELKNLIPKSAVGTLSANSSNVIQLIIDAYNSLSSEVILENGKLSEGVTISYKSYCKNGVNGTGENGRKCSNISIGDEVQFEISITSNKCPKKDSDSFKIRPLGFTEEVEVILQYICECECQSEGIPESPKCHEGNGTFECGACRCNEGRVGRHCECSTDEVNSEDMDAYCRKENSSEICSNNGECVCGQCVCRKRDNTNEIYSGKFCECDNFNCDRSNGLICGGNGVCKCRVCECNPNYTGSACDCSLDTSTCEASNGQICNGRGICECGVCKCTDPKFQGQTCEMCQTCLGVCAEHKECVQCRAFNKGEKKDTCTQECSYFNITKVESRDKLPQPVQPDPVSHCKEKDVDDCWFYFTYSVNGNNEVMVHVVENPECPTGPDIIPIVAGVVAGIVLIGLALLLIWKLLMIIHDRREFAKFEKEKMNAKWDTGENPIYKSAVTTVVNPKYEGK
# WBC, LSK and SLAM HSC [2] = assay: Mobilization of WBC, LSK and SLAM HSC into the circulation of C57BL/6J CD45.2 mice; type: in vivo; conditions: addition of BIO5192 to G7A (G7AB)
# Protocol: We tested two mobilization regimens in mice, one modeling a clinically approved protocol using G-CSF and AMD3100 (G7A), and the other one also comprising BIO5192 (G7AB). C57BL/6J CD45.2 mice were treated with G-CSF using a subcutaneous pump for a week combined with either AMD3100, or the combination of AMD3100 and BIO5192, delivered intraperitoneally at day 6 and 7 (FIG. 1A; FIG. 6B).
# The addition of BIO5192 led to a higher mobilization of WBC, LSK and SLAM HSC, leading to an additional 2-fold increase of SLAM HSC over G7A levels.
# as §1
# CD45.1 Lin^− donor cells = assay: M-HSCT: donor CD45.1 chimerism after mobilization of CD45.2 recipients; type: in vivo, C57BL/6J CD45.2 mice; conditions: addition of BIO5192 to the G-CSF/AMD3100 protocol (G7AB); 2×10^6 CD45.1 Lin^− cells; PB
# Description: To test if these levels of mobilization, and the subsequent BM niche availability, were sufficient to allow engraftment of donor cells, 2×10^6 CD45.1 lineage negative (Lin^−) cells, purified from the BM, were transplanted into CD45.2 congenic recipients after the last injection of AMD3100 or AMD3100/BIO5192 (FIG. 1A, C; FIG. 6D).
# Donor mice between 6 and 10 weeks of age were euthanized by CO2, and BM cells were retrieved from femurs, tibias, and humeri. HSPCs were purified by Lin− selection using the mouse Lineage Cell Depletion Kit (Miltenyi Biotec) according to the manufacturer's instructions. Cells were then cultured (for 2 hours or overnight) in serum-free StemSpan medium (StemCell Technologies) containing penicillin, streptomycin, glutamine, and a combination of mouse cytokines (20 ng/ml IL-3, 100 ng/ml SCF, 100 ng/ml Flt-3L, 50 ng/ml TPO all from PeproTech), at a concentration of 2-5×10^6 cells.ml^−1. Purified Lin^− cells were transplanted at a total dose of 2×10^6 cells/mouse into 8 to 12-week-old mobilized mice, three hours after the last injection of AMD3100 and/or Bio5192. Serial collections of blood from the retro-orbital vein were performed to monitor the hematological parameters and donor cell engraftment. At the end of the experiment, BM, thymus and spleen, and lymph nodes were harvested and analyzed.
# [3] = system: GFP+ cells within the hCD45+ population; assay: M-HSCT in hematochimeric mice with drug-resistant CXCR4 variant; AMD3465 protocol; type: in vivo, NSGW41 or NBSGW mice
# Description: FIG. 12. […] NSGW41 or NBSGW mice were humanized with human mobilized peripheral blood CD34+ cells until 10% chimerism was achieved. Mice were then mobilized with G-CSF for 7 days through subcutaneous pump implantations and with two injections of AMD3100 and BIO5192 at day 6 and 7. For the second transplant, GFP lentiviral vector-transduced cells from the same donor used to humanize the mice were electroporated with either CXCR4 wild type or CXCR4^D262N variant. The donor cells were then transplanted either at 3 h or immediately after the last injection of AMD3100. • (B) Human chimerism over time after mobilization, expressed as % of human CD45+ cells present in peripheral blood (right panel), and exchange efficiency (left panel) expressed as % of GFP+ cells within the hCD45+ population. CXCR4 Var=CXCR4 D262N. • (C) Mobilization efficiency of the standard protocol (G7AB) or the modified protocol with AMD3465 (G7AB*) measured as white blood cell count (WBC, left panel), and human CD34+CD38− cells (right panel). • (D) Human chimerism over time after mobilization, expressed as % of hCD45+ cells in peripheral blood (right panel), and exchange efficiency (left panel) expressed as % of GFP+ cells within the hCD45+ population. […]
# MMP9 = assay: ELISA on BM extracellular extracts, MMP9; type: in vivo, Cd40Ig^−/− mice
# Protocol: (§2) For ELISA performed on BM matrix, femurs and tibias were repeatedly flushed with 1 mL of cold PBS. Cells were pelleted by centrifugation at 300 g for 10 minutes at 4° C., supernatant was then collected and stored at −80° C. ELISA has been performed following manufacturer instruction after a 1:100 dilution with 1× Assay Diluent for MMP9 (Thermo Scientific) or on undiluted BM matrix for CXCL12 (Sigma-Aldrich).
# CXCL12 = assay: ELISA on BM extracellular extracts, CXCL12; type: in vivo, Cd40Ig^−/− mice
# Protocol: as §2
molecule,measurement,setting,value
"c1cc(CN2CCCNCCNCCCNCC2)ccc1CN1CCCNCCNCCCNCC1 [AMD3100, plerixafor]",increase of mobilized LSK,"WBC, LSK and SLAM HSC [1]; addition of AMD3100 to the standard G-CSF treatment",3 fold
same,"time of peak of mobilization of WBC, LSK and SLAM HSC","WBC, LSK and SLAM HSC [1]; post injection, PB analysis",around 3 hours
Cc1ccccc1NC(=O)Nc1ccc(CC(=O)N(C)[C@@H](CC(C)C)C(=O)NCC[C@H](NC(=O)[C@@H]2CCCN2S(=O)(=O)c2cc(Cl)cc(Cl)c2)C(=O)O)cc1 [BIO5192],affinity for VLA-4 higher than for the related α4β7 integrin,VLA-4,250- to 1000 fold
same,additional increase of SLAM HSC over G7A levels,"WBC, LSK and SLAM HSC [2]",2 fold
same,further increase of mobilized LSK,"WBC, LSK and SLAM HSC [1]; BIO5192 added to G-CSF and AMD3100",5 fold
same,"donor chimerism, median",CD45.1 Lin^− donor cells,30%
c1ccc(CNCc2ccc(CN3CCCNCCNCCCNCC3)cc2)nc1 [AMD3465],exchange efficiency,"[3]; AMD3100 or AMD3465, donor cells transplanted at the peak of mobilization",remained unchanged
same,mobilization efficiency,[3]; AMD3465 compared to AMD3100 in the standard protocol with G-CSF and BIO5192,not affected
"G-CSF: granulocyte colony-stimulating factor (Lenograstim) delivered by osmotic pump (protein, UniProt P09919 31-207, looked up) Granulocyte …: TPLGPASSLPQSFLLKCLEQVRKIQGDGAALQEKLVSECATYKLCHPEELVLLGHSLGIPWAPLSSCPSQALQLAGCLSQLHSGLFLYQGLLQALEGISPELGPTLDTLQLDVADFATTIWQQMEELGMAPALQPTQGAMPAFASAFQRRAGGVLVASHLQSFLEVSYRVLRHLAQP",MMP9 in the BM stroma,MMP9,increased
same,blood neutrophils and monocytes counts,"WBC, LSK and SLAM HSC [1]; PB after mobilization protocols",highly increased
same,level of CXCR4 expression on circulating SLAM HSC,"WBC, LSK and SLAM HSC [1]; with versus without G-CSF mobilization",lower
same,CXCL12 in the BM stroma,CXCL12,decreased
